The source made the active and inactive calls.

8 compounds from ChEMBL document CHEMBL1201862, “PubChem BioAssay data set” (2004) can be followed below.

The target of one assay is Paired box protein Pax-8 (Homo sapiens, UniProt Q06710). Nature of the assay: PAX8 transcriptional activity inhibition in RMG-I – RMG-I cells, luciferase, cherry-pick, dose response (AID 687027).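 Also: luciferase reporter driven by Pax8 target thyroperoxidase promoter measured by SteadyGlo luminescence.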 Type of assay: functional, cell-based.
Assay [1] can be described thus: OVCAR8 cell viability loss – plate reader, dry powder samples, PAX8 project, dose response (AID 743197). Type of assay: functional, cell-based. The conditions noted are these: OVCAR-8.
The nature of assay [2]: IGROV1 cell killing – plate reader, dry powder samples, PAX8 inhibitor project, dose response (AID 743043). The assay is classed as functional, cell-based. The conditions noted are these: IGROV-1.
A short description of assay [3]: OVCAR-3 cell viability loss – plate reader, dry powder samples, PAX8 inhibitor project, dose response (AID 743044). Type of assay: functional, cell-based.
A short description of assay [4]: general cell-killing toxicity readout – plate reader, dry powder samples, cytotoxicity control for PAX8 inhibitor project, dose response (AID 743021). Type of assay: functional, cell-based.
Assay [5] is described as follows: A2780 cell killing – plate reader, dry powder samples, cytotoxicity control, dose response (AID 743046). The assay is classed as functional, cell-based.
Assay [6] can be described thus: CMV-driven luciferase expression suppression in HEK293 – cell-based, luminescence, dry powder, counter-screen for Pax8 inhibitor project, dose response (AID 743020). The assay is classed as functional.
Assay [7] in a line: toxicity toward immortalized ovarian surface epithelium – cell-based, plate reader, dry powder samples, cytotoxicity control for PAX8 inhibitor project, dose response (AID 743045). Type of assay: functional.
The nature of assay [8]: inhibitors of non-replicating M. tuberculosis, dose response, luciferase, dry powder (AID 651620). The assay is classed as functional. As to conditions: Mycobacterium tuberculosis.
A short description of assay [9]: inhibitors of non-replicating M. tuberculosis, dose response, luciferase, dry powder (AID 651619). The assay is classed as functional. As to conditions: Mycobacterium tuberculosis.
For assay [10], the target named is T1, Oxysterols receptor LXR-beta (Homo sapiens, UniProt P55055).
T1 sequence (P55055 whole entry): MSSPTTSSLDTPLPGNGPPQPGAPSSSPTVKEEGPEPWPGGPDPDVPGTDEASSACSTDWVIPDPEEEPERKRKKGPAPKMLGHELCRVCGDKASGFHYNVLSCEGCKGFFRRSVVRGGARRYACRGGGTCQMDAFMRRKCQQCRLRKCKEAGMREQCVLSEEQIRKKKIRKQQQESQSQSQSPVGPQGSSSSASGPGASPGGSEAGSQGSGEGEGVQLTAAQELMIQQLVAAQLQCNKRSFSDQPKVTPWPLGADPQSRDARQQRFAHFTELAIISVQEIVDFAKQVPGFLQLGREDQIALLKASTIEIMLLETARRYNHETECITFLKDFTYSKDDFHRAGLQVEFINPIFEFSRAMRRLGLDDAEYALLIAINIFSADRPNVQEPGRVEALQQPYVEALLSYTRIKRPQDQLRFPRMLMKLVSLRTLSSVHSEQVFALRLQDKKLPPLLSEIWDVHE
The assay is classed as functional, cell-based.

A further assay has as its target Kallikrein-7 (Homo sapiens, UniProt P49862). Nature of the assay: Fluorescence Intensity-based biochemical primary high throughput dose response assay to identify activators of kallikrein-7 (K7) zymogen.
Assay [11] in a line: reduced cellular PGC1a acetyl-lysine signal – cell-based, cherry-picked samples, dose response (AID 720514).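 Also: potency may reflect raised or lowered acetylation signal.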 The assay is classed as functional.
A short description of assay [12]: Luminescence Cell-Based Dose Retest to Confirm Inhibitors of Cancer Stem Cells. [Related pubchem assays (depositor defined):AID2717, AID2721]. The conditions noted are these: Homo sapiens. Type of assay: functional.
Another assay deals with INS1. Nature of the assay: INS-1E survival protection against cytokine death – cell-based, luminescence, retest, dose response (AID 449756).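 Also: cell death triggered by IL-1 beta plus TNF-alpha plus IFN-gamma mixture; protective hits raise ATP signal compared with cytokine alone wells.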 The assay is classed as functional. As to conditions: Rattus norvegicus.
The nature of assay [13]: general mammalian cell viability loss – activator set, cherry-pick, cytotoxicity control for miR-122 modulator project, dose response (AID 720690).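 Also: HEK293T human cells scored for general mammalian cytotoxicity.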 The assay is classed as functional, cell-based.
The nature of assay [14]: viability loss in HEK293T cells – cell-based, cherry-picks, cytotoxicity control for HIV Vif inhibitor project, dose response (AID 652208). The assay is classed as functional.
Assay [15] in a line: activation of miR-122 Renilla sensor silencing – cell-based, Huh7 psiCHECK-miR122, Renilla luciferase, cherry-picked, dose response (AID 651956).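 Also: huh7 hepatoma cells stably carrying a psiCHECK-2 miR-122 sensor plasmid; renilla luciferase signal reporting endogenous miR-122 activity after 48 h compound exposure.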 The assay is classed as functional.
Assay [16] is described as follows: Luminescence-based cell-based high throughput dose response assay to identify activators of the DAF-12 from the parasite S. stercoralis (ssDAF-12). The assay is classed as functional.
For assay [17], the target named is T1, Oxysterols receptor LXR-beta. The assay is classed as functional, cell-based. This is another data set of the same source.

Sequence of Paired box protein Pax-8 (Q06710 whole entry): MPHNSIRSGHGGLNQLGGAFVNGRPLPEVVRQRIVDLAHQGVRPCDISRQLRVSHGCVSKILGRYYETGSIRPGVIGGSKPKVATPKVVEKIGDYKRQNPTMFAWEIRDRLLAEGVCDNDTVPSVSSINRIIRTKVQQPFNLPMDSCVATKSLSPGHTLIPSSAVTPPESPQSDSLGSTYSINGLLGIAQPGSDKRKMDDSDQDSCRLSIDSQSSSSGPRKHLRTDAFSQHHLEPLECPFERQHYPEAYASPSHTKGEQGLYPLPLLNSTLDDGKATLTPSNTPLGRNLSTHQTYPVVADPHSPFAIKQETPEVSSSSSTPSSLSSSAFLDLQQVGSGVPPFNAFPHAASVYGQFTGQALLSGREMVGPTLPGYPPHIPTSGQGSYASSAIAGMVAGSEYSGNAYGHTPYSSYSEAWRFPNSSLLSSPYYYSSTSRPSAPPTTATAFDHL
Sequence of Kallikrein-7 (P49862 whole entry): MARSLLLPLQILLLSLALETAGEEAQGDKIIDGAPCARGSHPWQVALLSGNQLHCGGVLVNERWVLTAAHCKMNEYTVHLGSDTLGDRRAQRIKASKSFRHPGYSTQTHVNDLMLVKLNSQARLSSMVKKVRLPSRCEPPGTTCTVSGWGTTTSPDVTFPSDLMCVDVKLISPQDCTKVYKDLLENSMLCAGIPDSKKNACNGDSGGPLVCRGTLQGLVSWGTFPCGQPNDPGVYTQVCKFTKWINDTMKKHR

The term AC50 denotes the midpoint of the concentration-response curve, whichever way the signal moves. In the case of `C[C@@H]1CN([C@H](C)CO)C(=O)c2cc(NS(=O)(=O)c3ccccc3)ccc2O[C@@H](C)CCCCO[C@@H]1CN(C)Cc1ccc(C(F)(F)F)cc1`, the AC50 on Paired box protein Pax-8 was 5.74 µM (active); in [1], 39 µM (active); in assay [2] it was 35.4 µM (active); in [3], 27.4 µM (active); in assay [4] it was 49 µM (active); in assay [5], 34.8 µM (active). Moreover, the half-maximal activity concentration (AC50) in assay [6] is 65.4 µM (active).

In the case of `C[C@H]1CCCCO[C@H](CN(C)C(=O)Nc2ccc(C(F)(F)F)cc2)[C@@H](C)CN([C@@H](C)CO)C(=O)c2cc(NC(=O)Nc3ccc(F)cc3)ccc2O1`, the AC50 on Paired box protein Pax-8 was 3.62 µM (active); in [1], 23.7 µM (active); in assay [7] it was 50.8 µM (active); in [3], 11.2 µM (active); in [5] it was 52.4 µM (active).

The term IC90 denotes the concentration at which the effect reaches the 90% level. In the case of `c1ccc(Cn2cc(CSc3nnc(-c4ccccc4)o3)nn2)cc1`, the IC90 in assay [8] and in assay [9] was 2 µM (active) in each case.

Usually EC50 stands for the concentration needed to bring the measured effect to its halfway point. As to `CCOC(=O)CSc1nc(-c2ccncc2)ccc1C#N`, the EC50 in assay [10] was > 67.5 µM (inactive).

For `COc1ccc2ccccc2c1C=NNC(=O)c1cc(-c2ccc(C)c(C)c2)[nH]n1`, on Kallikrein-7, the EC50 is > 2.57 µM (active).

Consider `Cc1cc(-c2ccc(Cl)cc2)n2ncnc2n1`, for which the AC50 in assay [11] is 29.8 µM (active).

On to `COc1ccc(-c2cc(-c3nc4ccccn4c3NCc3ccccc3)ccc2OC)cc1`, for which the AC50 in assay [12] is 5.24 µM (active); in the assay with INS1 it was 1.33 µM (active); in assay [13], 3.12 µM (active); in [14], 1.69 µM (active); in assay [15], 8.74 µM (active).

By IC50 is commonly meant the midpoint of a concentration-inhibition curve. With `COc1ccc(Nc2nc(-c3ccccc3)cs2)cc1`, the IC50 in assay [16] was > 67.5 µM (inactive). Besides, the EC50 (in “cells”; in assay [17]) was > 67.5 µM (inactive) each time.
